Here are results for 7 compounds from PubChem BioAssay (NCI).

The structures appear in SMILES notation. Where “and” joins values, the source holds several entries; their conditions need not be identical. Identical values can stand only once.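 Method: 48-hour compound exposure of cells in 96-well plates, five concentrations, linear interpolation of endpoints. GI50 = concentration required for 50% inhibition of growth. TGI marks complete inhibition of growth.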 Some results are limits rather than exact numbers.

Common to all, as to experiment: growth of human tumour cells (NCI), 48 h
For assay [1], the system named is BT-549 breast.
Assay [2] relates to CCRF-CEM leukemia.
Assay [3] relates to HT29 colon.
Assay [4] concerns KM12 colon.
The test system of assay [5] is M14 melanoma.
Assay [6] deals with MOLT-4 leukemia.
The subject of assay [7] is NCI-H460 lung.
Assay [8] relates to NCI-H522 lung.
Assay [9] has as its system PC-3 prostate.
Assay [10] concerns T-47D breast.

Turning to `CN(CCCCCl)P(=O)(OCCS(=O)(=O)CC(NC(=O)CCC(N)C(=O)O)C(=O)NC(C(=O)O)c1ccccc1)OCC1OC(n2ccc(N)nc2=O)C(F)(F)C1O` (stereo unspecified), the GI50 was 0.783 µM in [1]; 0.0897 µM in [2]; 0.586 µM in assay [3]; 14.6 µM in assay [4]; 0.0369 µM in assay [5]; 0.146 µM in assay [6]. Besides, the GI50 in [7] was 0.104 µM; in assay [8] it was 3.79 µM; in [9], 5.24 µM; in assay [10], 1.33 µM. Further, the TGI in assay [1] is over 100 µM; in assay [2] it was over 100 µM; in [3], over 100 µM; in assay [4], over 100 µM; in assay [5], 0.435 µM; in assay [6], over 70.1 µM. Also, the TGI in assay [7], in [8], in assay [9] and in [10] was over 100 µM in each case.

For the compound `CC(C)c1cnn2c(NCc3ccccc3)cc(NC[C@H]3CCNC[C@@H]3O)nc12`, the GI50 in [1] is 1.81 µM and 1.27 µM; in assay [2], 0.31 µM and 0.672 µM; in assay [3] it was 0.285 µM and 0.369 µM; in assay [4], 0.353 µM and 0.407 µM; in assay [5], 0.586 µM and 0.688 µM; in assay [6], 0.361 µM and 0.504 µM. The GI50 is 0.0583 µM and 0.0817 µM in assay [7]; 0.844 µM and 0.438 µM in assay [8]; 0.363 µM and 0.587 µM in [9]; 0.472 µM and 0.898 µM in assay [10]. For the same compound, the TGI in [1] was 4.4 µM and 3.08 µM; in [2], 6.01 µM and 14.9 µM; in assay [3] it was 10.3 µM and 5.73 µM; in [4], 3.31 µM and 2.5 µM; in assay [5], 2.25 µM and 2.2 µM; in assay [6] it was 10.2 µM and 14 µM. Besides, the TGI in assay [7] was 1.7 µM and 3.31 µM; in assay [8] it was 2.7 µM and 2.43 µM; in [9], 6.73 µM and 10.4 µM; in assay [10] it was 7.58 µM and 9.5 µM.

As to `CCNc1cc(-c2cccc(OC(F)(F)F)c2)nc2ccc(N3CCCC3)cc12`, the GI50 in assay [1] is 2.03 µM; in assay [2] it was 2.04 µM; in assay [3], 2.18 µM; in assay [4] it was 1.97 µM; in assay [5], 1.64 µM; in [6], 2.08 µM. Moreover, the GI50 is 1.75 µM in [7], 1.45 µM in assay [8], 1.48 µM in assay [9] and 2.11 µM in assay [10]. Further, the TGI was determined as 4.07 µM in assay [1]; 8.69 µM in assay [2]; 10.3 µM in assay [3]; 4.77 µM in [4]; 3.28 µM in assay [5]; 7.08 µM in assay [6]. The TGI in [7] is 4.1 µM; in assay [8] it was 3.65 µM; in assay [9], 4.31 µM; in [10], 7.06 µM.

Take `Cn1c(C(=O)c2ccncc2)cc2ccccc21`: the GI50 in assay [1] was over 100 µM; in assay [2], over 100 µM; in assay [3], 92.8 µM; in [4], 75.5 µM; in assay [5], over 100 µM; in assay [6], 54.4 µM. Further, the GI50 in assay [7] was over 100 µM; in [8] it was 78.5 µM; in [9], 80.7 µM; in [10], 41.6 µM. Further, the TGI in [1], in assay [2], in assay [3], in assay [4], in assay [5] and in [6] was over 100 µM in each case. The TGI in assay [7], in assay [8], in assay [9] and in assay [10] was over 100 µM throughout.

With `CC(C)c1c(-c2ccccc2)nc2c(C#N)c[nH]n2c1=O`, the GI50 in [1] was 26.2 µM; in assay [2], 28.5 µM; in [3], 33.9 µM; in assay [4] it was 31.7 µM; in [5] it was 30.6 µM; in [6] it was 32 µM. The GI50 in assay [7] was 32.6 µM; in assay [8], 26 µM; in [9], 25.2 µM; in [10], 25.2 µM. In addition, the TGI was over 95.5 µM in assay [1]; over 100 µM in [2]; over 100 µM in [3]; over 100 µM in assay [4]; over 100 µM in [5]; over 100 µM in [6]. Besides, the TGI in [7] was over 100 µM; in assay [8] it was 80 µM; in assay [9], over 73.5 µM; in [10], 87.6 µM.

With `CC1CCC2(NC1)OC1CC3C4CC=C5CC(O)CCC5(C)C4CCC3(C)C1C2C` (stereo unspecified), the TGI in assay [1] is over 100 µM; in assay [2], 40 µM and 41.5 µM; in [3], over 100 µM; in [4] it was 47.4 µM and 64.4 µM; in assay [5], over 100 µM; in [6], 55.5 µM and 59.5 µM. Also, the TGI in assay [7] was over 100 µM; in assay [8] it was > 100 µM and 62.9 µM; in assay [9], over 100 µM; in assay [10], 49 µM and 48.9 µM. Also, the GI50 in assay [4] was 14 µM and 6.75 µM.

Regarding `COc1ccc(-c2ccncc2)cc1C(N)=O`, the GI50 in assay [1], in assay [2], in assay [3], in assay [4], in assay [5] and in [6] was over 25 µM each time. The GI50 in assay [7], in assay [8], in assay [9] and in assay [10] was over 25 µM each time. The TGI in [1], in assay [2], in [3], in assay [4], in [5] and in assay [6] was over 25 µM throughout. Also, the TGI in assay [7], in assay [8], in [9] and in assay [10] was over 25 µM in each case.
